Experiment: mn = molality of the nth substance listed, in mol/kg
Conditions: 298.15 K, 101.33 kPa, Liquid, Alternating current cell with electrodes

CCCC[N+]1(C)CCCC1.O=S(=O)([O-])C(F)(F)C(F)(F)C(F)(F)C(F)(F)F [1-butyl-1-methylpyrrolidinium perfluorobutanesulfonate] + O
Conditions | electrical conductivity [S/m]
m1 = 0.004597 | 0.0233
m1 = 0.005016 | 0.0254
m1 = 0.005639 | 0.0279
m1 = 0.006033 | 0.0293
m1 = 0.006491 | 0.0311
m1 = 0.007025 | 0.0343
m1 = 0.007655 | 0.0363
m1 = 0.008405 | 0.0397
m1 = 0.00933 | 0.0447
m1 = 0.0105 | 0.0483
m1 = 0.012 | 0.0554
m1 = 0.01274 | 0.0584
m1 = 0.01401 | 0.0642
m1 = 0.01533 | 0.0697
m1 = 0.01608 | 0.0731
m1 = 0.01691 | 0.0769
m1 = 0.01784 | 0.0804

CCCCCCCCCCCCn1cc[n+](C)c1.O=S(=O)([O-])C(F)(F)C(F)(F)C(F)(F)C(F)(F)F [1-dodecyl-3-methylimidazolium perfluorobutanesulfonate] + O
Conditions | electrical conductivity [S/m]
m1 = 1.598e-05 | 0.00011
m1 = 2.066e-05 | 0.00016
m1 = 2.421e-05 | 0.00018
m1 = 2.925e-05 | 0.00022
m1 = 3.682e-05 | 0.0003
m1 = 4.977e-05 | 0.00041
m1 = 5.764e-05 | 0.00048
m1 = 7.583e-05 | 0.00063
m1 = 8.783e-05 | 0.0007
m1 = 0.0001043 | 0.00085
m1 = 0.0001122 | 0.00089
m1 = 0.0001213 | 0.00095
m1 = 0.000132 | 0.00101
m1 = 0.0001448 | 0.00109
m1 = 0.0001603 | 0.00118
m1 = 0.0001796 | 0.00129
m1 = 0.0001903 | 0.00136

CCCCCC[n+]1ccn(C)c1.O=S(=O)([O-])C(F)(F)C(F)(F)C(F)(F)C(F)(F)F [1-methyl-3-hexylimidazolium perfluorobutanesulfonate] + O
Conditions | electrical conductivity [S/m]
m1 = 0.0006843 | 0.0038
m1 = 0.001003 | 0.0055
m1 = 0.001271 | 0.0072
m1 = 0.001953 | 0.0108
m1 = 0.002415 | 0.0133
m1 = 0.002944 | 0.0163
m1 = 0.003168 | 0.0174
m1 = 0.00367 | 0.0201
m1 = 0.004364 | 0.0235
m1 = 0.004701 | 0.0252
m1 = 0.005473 | 0.0291
m1 = 0.006118 | 0.0323
m1 = 0.006443 | 0.0339
m1 = 0.007009 | 0.0367
m1 = 0.007312 | 0.0382
m1 = 0.007666 | 0.04
m1 = 0.007936 | 0.0413
m1 = 0.008317 | 0.0431
m1 = 0.008657 | 0.0448
m1 = 0.009459 | 0.0484
m1 = 0.009734 | 0.0497
m1 = 0.01004 | 0.051
m1 = 0.01032 | 0.0523
m1 = 0.01057 | 0.0535
m1 = 0.01151 | 0.0567
m1 = 0.01188 | 0.0581
m1 = 0.01244 | 0.0611
m1 = 0.01292 | 0.0624
m1 = 0.01353 | 0.0644
m1 = 0.01416 | 0.0668
m1 = 0.01452 | 0.069

CCCCCCCCn1cc[n+](C)c1.O=S(=O)([O-])C(F)(F)C(F)(F)C(F)(F)C(F)(F)F [1-methyl-3-octylimidazolium perfluorobutanesulfonate] + O
Conditions | electrical conductivity [S/m]
m1 = 0.0003013 | 0.0016
m1 = 0.0007028 | 0.0037
m1 = 0.001019 | 0.0054
m1 = 0.001249 | 0.0069
m1 = 0.00155 | 0.008
m1 = 0.001919 | 0.0102
m1 = 0.0022 | 0.0117
m1 = 0.002596 | 0.0136
m1 = 0.002912 | 0.0145
m1 = 0.003181 | 0.0157
m1 = 0.003623 | 0.017
m1 = 0.003988 | 0.0176
m1 = 0.004309 | 0.0183
m1 = 0.004701 | 0.0192
m1 = 0.005065 | 0.0202
m1 = 0.005333 | 0.0206
m1 = 0.005728 | 0.0209

CCCC[N+](CCCC)(CCCC)CCCC.O=S(=O)([O-])C(F)(F)C(F)(F)C(F)(F)C(F)(F)F [tetrabutylammonium perfluorobutanesulfonate] + O
Conditions | electrical conductivity [S/m]
m1 = 0.002247 | 0.0136
m1 = 0.002283 | 0.0138
m1 = 0.002308 | 0.0139
m1 = 0.002329 | 0.014
m1 = 0.002356 | 0.0142
m1 = 0.002375 | 0.0143
m1 = 0.002407 | 0.0145
m1 = 0.002447 | 0.0147
m1 = 0.002477 | 0.0148
m1 = 0.002494 | 0.0149
m1 = 0.002516 | 0.015
m1 = 0.002534 | 0.0151
